Assay results published in ChEMBL document CHEMBL4507284, “Data for DCP probe BI-1230” (2021).
The source made the active and inactive calls. The rule behind the calls is not given here.

Tests used:
NS3 protease = NS3 protease (Hepacivirus C, UniProt C1KIQ2); assay: Enzymatic assay; parameters: species or system Hepacivirus hominis
[1] = test system: Tyrosine-protein kinase ABL1 (Homo sapiens), P00519 [H396P]; details: Compound concentration 1000.0 nM
[2] = target: Atypical kinase COQ8A, mitochondrial (Homo sapiens) (UniProt Q8NI60); details: Compound concentration 1000.0 nM
[3] = target: Aurora kinase C (Homo sapiens) (UniProt Q9UQB9); details: Compound concentration 1000.0 nM
[4] = target: Bone morphogenetic protein receptor type-1B (Homo sapiens) (UniProt O00238); details: Compound concentration 1000.0 nM
[5] = target: Tyrosine-protein kinase BTK (Homo sapiens) (UniProt Q06187); details: Compound concentration 1000.0 nM
[6] = target: Calcium/calmodulin-dependent protein kinase kinase 1 (Homo sapiens) (UniProt Q8N5S9); details: Compound concentration 1000.0 nM
[7] = target: Cyclin-dependent kinase 9 (Homo sapiens) (UniProt P50750); details: Compound concentration 1000.0 nM
[8] = target: Cyclin-dependent kinase-like 2 (Homo sapiens) (UniProt Q92772); details: Compound concentration 1000.0 nM
[9] = target: Citron Rho-interacting kinase (Homo sapiens) (UniProt O14578); details: Compound concentration 1000.0 nM
[10] = target: Casein kinase I isoform alpha (Homo sapiens) (UniProt P48729); details: Compound concentration 1000.0 nM
[11] = target: Casein kinase II subunit alpha (Homo sapiens) (UniProt P68400); details: Compound concentration 1000.0 nM
[12] = target: Death-associated protein kinase 2 (Homo sapiens) (UniProt Q9UIK4); details: Compound concentration 1000.0 nM
[13] = target: Dual specificity tyrosine-phosphorylation-regulated kinase 1B (Homo sapiens) (UniProt Q9Y463); details: Compound concentration 1000.0 nM
[14] = target: Dual specificity tyrosine-phosphorylation-regulated kinase 2 (Homo sapiens) (UniProt Q92630); details: Compound concentration 1000.0 nM
[15] = target: Epidermal growth factor receptor (Homo sapiens) (UniProt P00533); details: Compound concentration 1000.0 nM
[16] = test system: Epidermal growth factor receptor (Homo sapiens), P00533 [UNDEFINED MUTATION]; details: Compound concentration 1000.0 nM
[17] = target: Ephrin type-A receptor 1 (Homo sapiens) (UniProt P21709); details: Compound concentration 1000.0 nM
[18] = target: Receptor tyrosine-protein kinase erbB-2 (Homo sapiens) (UniProt P04626); details: Compound concentration 1000.0 nM
[19] = target: Mitogen-activated protein kinase 7 (Homo sapiens) (UniProt Q13164); details: Compound concentration 1000.0 nM
[20] = target: Tyrosine-protein kinase Fer (Homo sapiens) (UniProt P16591); details: Compound concentration 1000.0 nM
[21] = target: Vascular endothelial growth factor receptor 1 (Homo sapiens) (UniProt P17948); details: Compound concentration 1000.0 nM
[22] = target: Vascular endothelial growth factor receptor 3 (Homo sapiens) (UniProt P35916); details: Compound concentration 1000.0 nM
[23] = target: Rhodopsin kinase GRK1 (Homo sapiens) (UniProt Q15835); details: Compound concentration 1000.0 nM
[24] = target: Interleukin-1 receptor-associated kinase 3 (Homo sapiens) (UniProt Q9Y616); details: Compound concentration 1000.0 nM
[25] = test system: Mast/stem cell growth factor receptor Kit (Homo sapiens), P10721 [L576P]; details: Compound concentration 1000.0 nM
[26] = test system: Leucine-rich repeat serine/threonine-protein kinase 2 (Homo sapiens), Q5S007 [G2019S]; details: Compound concentration 1000.0 nM
[27] = target: Dual specificity mitogen-activated protein kinase kinase 3 (Homo sapiens) (UniProt P46734); details: Compound concentration 1000.0 nM
[28] = target: Dual specificity mitogen-activated protein kinase kinase 6 (Homo sapiens) (UniProt P52564); details: Compound concentration 1000.0 nM
[29] = target: Dual specificity mitogen-activated protein kinase kinase 7 (Homo sapiens) (UniProt O14733); details: Compound concentration 1000.0 nM
[30] = target: Mitogen-activated protein kinase kinase kinase 9 (Homo sapiens) (UniProt P80192); details: Compound concentration 1000.0 nM
[31] = target: Serine/threonine-protein kinase PAK 1 (Homo sapiens) (UniProt Q13153); details: Compound concentration 1000.0 nM
[32] = target: Cyclin-dependent kinase 14 (Homo sapiens) (UniProt O94921); details: Compound concentration 1000.0 nM
[33] = target: Phosphatidylinositol 4,5-bisphosphate 3-kinase catalytic subunit alpha isoform (Homo sapiens) (UniProt P42336); details: Compound concentration 1000.0 nM
[34] = target: Serine/threonine-protein kinase D3 (Homo sapiens) (UniProt O94806); details: Compound concentration 1000.0 nM
[35] = target: Serine/threonine-protein kinase PRP4 homolog (Homo sapiens) (UniProt Q13523); details: Compound concentration 1000.0 nM
[36] = test system: Proto-oncogene tyrosine-protein kinase receptor Ret (Homo sapiens), P07949 [V804L]; details: Compound concentration 1000.0 nM
[37] = target: Serine/threonine-protein kinase RIO2 (Homo sapiens) (UniProt Q9BVS4); details: Compound concentration 1000.0 nM
[38] = target: Ribosomal protein S6 kinase alpha-4 (Homo sapiens) (UniProt O75676); details: Compound concentration 1000.0 nM
[39] = target: Ribosomal protein S6 kinase alpha-5 (Homo sapiens) (UniProt O75582); details: Compound concentration 1000.0 nM
[40] = target: Serine/threonine-protein kinase Sgk3 (Homo sapiens) (UniProt Q96BR1); details: Compound concentration 1000.0 nM
[41] = target: Serine/threonine-protein kinase TAO2 (Homo sapiens) (UniProt Q9UL54); details: Compound concentration 1000.0 nM
[42] = target: Wee1-like protein kinase 2 (Homo sapiens) (UniProt P0C1S8); details: Compound concentration 1000.0 nM
[43] = target: D(3) dopamine receptor (Homo sapiens) (UniProt P35462); details: Compound concentration 10.0 uM
[44] = target: Sodium-dependent noradrenaline transporter (Homo sapiens) (UniProt P23975); details: Compound concentration 10.0 uM
[45] = target: Mu-type opioid receptor (Homo sapiens) (UniProt P35372); details: Compound concentration 10.0 uM

Chain of Serine/threonine-protein kinase PAK 1 (Homo sapiens) (Q13153 whole entry): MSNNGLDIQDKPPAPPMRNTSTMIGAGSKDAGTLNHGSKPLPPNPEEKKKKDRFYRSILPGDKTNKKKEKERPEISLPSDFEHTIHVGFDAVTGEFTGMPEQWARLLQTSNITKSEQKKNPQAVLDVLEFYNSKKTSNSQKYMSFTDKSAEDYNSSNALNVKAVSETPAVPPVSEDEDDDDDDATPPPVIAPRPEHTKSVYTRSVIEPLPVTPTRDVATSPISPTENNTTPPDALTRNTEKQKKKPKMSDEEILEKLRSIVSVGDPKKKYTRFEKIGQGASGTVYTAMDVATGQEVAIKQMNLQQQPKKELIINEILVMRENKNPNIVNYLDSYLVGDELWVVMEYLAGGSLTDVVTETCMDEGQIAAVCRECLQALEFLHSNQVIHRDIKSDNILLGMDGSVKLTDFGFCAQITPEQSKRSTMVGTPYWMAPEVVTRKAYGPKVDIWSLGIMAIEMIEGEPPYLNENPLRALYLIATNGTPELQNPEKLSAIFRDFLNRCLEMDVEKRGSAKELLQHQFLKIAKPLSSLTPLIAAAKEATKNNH
Chain of Wee1-like protein kinase 2 (Homo sapiens) (P0C1S8 whole entry, looked up): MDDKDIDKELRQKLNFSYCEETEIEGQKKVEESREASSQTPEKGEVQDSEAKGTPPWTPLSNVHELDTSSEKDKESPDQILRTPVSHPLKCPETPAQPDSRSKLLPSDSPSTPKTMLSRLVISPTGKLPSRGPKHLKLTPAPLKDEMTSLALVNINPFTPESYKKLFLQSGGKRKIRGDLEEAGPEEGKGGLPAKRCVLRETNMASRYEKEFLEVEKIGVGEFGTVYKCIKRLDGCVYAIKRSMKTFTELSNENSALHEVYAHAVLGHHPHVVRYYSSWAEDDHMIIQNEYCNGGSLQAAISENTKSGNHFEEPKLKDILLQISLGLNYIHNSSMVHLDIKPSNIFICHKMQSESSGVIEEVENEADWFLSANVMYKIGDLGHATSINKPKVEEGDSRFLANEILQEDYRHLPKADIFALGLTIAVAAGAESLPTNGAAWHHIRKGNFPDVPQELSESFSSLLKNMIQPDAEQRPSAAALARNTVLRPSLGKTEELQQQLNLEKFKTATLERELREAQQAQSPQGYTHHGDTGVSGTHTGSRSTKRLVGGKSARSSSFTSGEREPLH
Chain of Citron Rho-interacting kinase (Homo sapiens) (O14578 whole entry, canonical isoform): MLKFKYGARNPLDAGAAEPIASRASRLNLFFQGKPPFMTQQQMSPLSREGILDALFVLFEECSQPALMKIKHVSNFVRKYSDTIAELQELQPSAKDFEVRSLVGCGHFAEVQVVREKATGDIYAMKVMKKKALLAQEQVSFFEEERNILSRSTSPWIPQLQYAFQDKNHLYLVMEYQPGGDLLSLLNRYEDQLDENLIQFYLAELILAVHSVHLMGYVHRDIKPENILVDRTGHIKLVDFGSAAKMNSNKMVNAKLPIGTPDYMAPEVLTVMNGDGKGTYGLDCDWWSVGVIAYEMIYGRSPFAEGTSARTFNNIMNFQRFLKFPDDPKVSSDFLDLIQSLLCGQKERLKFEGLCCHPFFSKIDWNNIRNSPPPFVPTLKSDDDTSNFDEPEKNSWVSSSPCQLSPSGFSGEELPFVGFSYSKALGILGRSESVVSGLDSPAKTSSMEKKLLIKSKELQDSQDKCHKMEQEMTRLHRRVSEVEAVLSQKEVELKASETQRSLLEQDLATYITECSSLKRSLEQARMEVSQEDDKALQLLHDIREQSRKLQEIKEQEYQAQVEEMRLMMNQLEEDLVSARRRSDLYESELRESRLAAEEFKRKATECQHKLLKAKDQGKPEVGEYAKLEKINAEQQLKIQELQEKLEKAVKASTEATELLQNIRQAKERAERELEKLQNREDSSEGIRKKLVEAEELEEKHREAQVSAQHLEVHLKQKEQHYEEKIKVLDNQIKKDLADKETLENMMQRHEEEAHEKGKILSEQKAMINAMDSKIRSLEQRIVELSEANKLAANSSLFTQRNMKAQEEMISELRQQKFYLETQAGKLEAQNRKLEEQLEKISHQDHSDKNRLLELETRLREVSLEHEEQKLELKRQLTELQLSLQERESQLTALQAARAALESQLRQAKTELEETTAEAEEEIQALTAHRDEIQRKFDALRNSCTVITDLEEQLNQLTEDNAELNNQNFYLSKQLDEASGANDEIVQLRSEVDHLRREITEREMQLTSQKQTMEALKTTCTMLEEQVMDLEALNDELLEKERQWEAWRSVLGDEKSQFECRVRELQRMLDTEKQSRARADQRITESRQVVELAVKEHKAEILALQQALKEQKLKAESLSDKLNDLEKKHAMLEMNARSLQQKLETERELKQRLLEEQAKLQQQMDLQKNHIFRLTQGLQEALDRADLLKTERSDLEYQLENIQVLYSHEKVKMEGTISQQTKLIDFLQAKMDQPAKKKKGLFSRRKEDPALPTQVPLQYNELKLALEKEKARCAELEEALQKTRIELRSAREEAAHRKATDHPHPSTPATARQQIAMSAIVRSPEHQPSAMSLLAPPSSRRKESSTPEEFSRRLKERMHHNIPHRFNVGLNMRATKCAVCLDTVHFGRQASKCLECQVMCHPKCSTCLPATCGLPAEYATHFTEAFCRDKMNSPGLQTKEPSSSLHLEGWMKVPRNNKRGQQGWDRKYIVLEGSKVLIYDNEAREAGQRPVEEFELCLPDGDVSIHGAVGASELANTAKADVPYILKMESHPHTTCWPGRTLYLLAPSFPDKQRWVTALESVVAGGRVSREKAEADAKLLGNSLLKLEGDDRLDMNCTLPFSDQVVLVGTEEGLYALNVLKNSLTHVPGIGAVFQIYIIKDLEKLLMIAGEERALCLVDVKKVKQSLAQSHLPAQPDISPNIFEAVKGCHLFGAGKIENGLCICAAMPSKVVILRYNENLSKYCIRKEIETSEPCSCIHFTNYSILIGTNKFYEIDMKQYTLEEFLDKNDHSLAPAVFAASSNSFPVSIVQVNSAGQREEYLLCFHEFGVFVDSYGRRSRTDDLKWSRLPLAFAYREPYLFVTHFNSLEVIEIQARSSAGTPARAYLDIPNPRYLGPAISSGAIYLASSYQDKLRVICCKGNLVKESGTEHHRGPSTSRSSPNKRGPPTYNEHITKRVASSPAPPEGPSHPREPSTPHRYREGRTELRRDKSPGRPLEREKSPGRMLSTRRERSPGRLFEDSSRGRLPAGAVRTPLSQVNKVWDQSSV
Chain of Cyclin-dependent kinase 14 (Homo sapiens) (O94921 whole entry, canonical isoform): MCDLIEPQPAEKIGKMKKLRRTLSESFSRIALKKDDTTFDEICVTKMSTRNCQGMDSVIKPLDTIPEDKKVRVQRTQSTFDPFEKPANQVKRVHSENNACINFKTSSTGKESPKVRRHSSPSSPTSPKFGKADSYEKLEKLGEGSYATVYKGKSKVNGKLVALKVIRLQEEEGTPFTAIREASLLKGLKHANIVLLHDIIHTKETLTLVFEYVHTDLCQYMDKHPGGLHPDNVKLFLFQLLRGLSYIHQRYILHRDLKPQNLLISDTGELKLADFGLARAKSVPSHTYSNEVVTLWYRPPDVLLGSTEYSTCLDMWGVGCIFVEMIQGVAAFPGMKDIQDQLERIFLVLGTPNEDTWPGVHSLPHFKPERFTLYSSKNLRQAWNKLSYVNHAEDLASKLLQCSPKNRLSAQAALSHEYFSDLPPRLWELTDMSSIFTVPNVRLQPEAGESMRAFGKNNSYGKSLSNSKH
Chain of Receptor tyrosine-protein kinase erbB-2 (Homo sapiens) (P04626 whole entry): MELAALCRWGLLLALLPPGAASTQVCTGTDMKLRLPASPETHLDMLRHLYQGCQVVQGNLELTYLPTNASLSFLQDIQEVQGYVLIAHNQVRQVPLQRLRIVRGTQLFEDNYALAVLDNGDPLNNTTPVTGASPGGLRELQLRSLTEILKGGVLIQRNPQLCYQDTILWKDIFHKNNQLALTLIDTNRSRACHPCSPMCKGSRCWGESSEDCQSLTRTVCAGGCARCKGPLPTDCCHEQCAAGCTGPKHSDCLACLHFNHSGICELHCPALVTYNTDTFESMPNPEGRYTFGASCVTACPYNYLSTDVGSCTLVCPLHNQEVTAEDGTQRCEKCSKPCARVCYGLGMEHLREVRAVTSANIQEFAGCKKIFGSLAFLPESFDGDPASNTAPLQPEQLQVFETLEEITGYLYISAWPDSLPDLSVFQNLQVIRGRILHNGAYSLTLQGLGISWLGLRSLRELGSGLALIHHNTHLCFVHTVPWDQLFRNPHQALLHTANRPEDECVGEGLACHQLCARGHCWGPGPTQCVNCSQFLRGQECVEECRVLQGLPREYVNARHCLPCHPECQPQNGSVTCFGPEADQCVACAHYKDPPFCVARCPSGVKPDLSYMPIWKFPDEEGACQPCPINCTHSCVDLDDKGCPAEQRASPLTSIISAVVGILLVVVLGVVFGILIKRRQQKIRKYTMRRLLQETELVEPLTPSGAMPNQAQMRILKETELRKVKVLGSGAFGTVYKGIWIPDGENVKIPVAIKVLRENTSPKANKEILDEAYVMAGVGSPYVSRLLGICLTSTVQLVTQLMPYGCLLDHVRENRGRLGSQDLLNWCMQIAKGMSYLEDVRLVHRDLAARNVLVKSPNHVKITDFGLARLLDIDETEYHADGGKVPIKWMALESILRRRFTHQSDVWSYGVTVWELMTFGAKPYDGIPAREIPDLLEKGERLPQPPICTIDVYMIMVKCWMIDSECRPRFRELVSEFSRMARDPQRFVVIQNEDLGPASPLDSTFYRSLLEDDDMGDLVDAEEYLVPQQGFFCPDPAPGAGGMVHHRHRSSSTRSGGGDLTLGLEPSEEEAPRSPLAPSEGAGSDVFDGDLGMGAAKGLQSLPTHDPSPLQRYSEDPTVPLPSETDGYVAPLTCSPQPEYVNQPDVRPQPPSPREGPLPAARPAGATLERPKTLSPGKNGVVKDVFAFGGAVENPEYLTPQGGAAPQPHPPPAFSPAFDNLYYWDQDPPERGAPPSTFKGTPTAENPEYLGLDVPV
Chain of NS3 protease (C1KIQ2 whole entry): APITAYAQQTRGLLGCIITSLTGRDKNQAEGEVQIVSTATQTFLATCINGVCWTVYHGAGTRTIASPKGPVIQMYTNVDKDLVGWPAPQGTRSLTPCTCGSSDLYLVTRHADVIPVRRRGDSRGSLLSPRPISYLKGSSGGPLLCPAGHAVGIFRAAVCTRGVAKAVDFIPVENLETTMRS

Compound: COc1ccc2c(O[C@@H]3C[C@H]4C(=O)N[C@]5(C(=O)O)CC5/C=C\CCCCC[C@H](NC(=O)OC5CCCC5)C(=O)N4C3)cc(-c3csc(NC(=O)C(C)C)n3)nc2c1C (some centres not stated) [BI 1230]
- IC50 (NS3 protease): 6.7 nM (active)
- residual activity [1]: 91%
- residual activity [2]: 100%
- residual activity [3]: 96%
- residual activity [4]: 77%
- residual activity [5]: 85%
- residual activity [6]: 100%
- residual activity [7]: 83%
- residual activity [8]: 89%
- residual activity [9]: 99%
- residual activity [10]: 68%
- residual activity [11]: 81%
- residual activity [12]: 100%
- residual activity [13]: 74%
- residual activity [14]: 77%
- residual activity [15]: 92%
- residual activity [16]: 98%
- residual activity [17]: 88%
- residual activity [18]: 97%
- residual activity [19]: 100%
- residual activity [20]: 100%
- residual activity [21]: 95%
- residual activity [22]: 100%
- residual activity [23]: 100%
- residual activity [24]: 97%
- residual activity [25]: 90%
- residual activity [26]: 91%
- residual activity [27]: 82%
- residual activity [28]: 100%
- residual activity [29]: 81%
- residual activity [30]: 100%
- residual activity [31]: 100%
- residual activity [32]: 88%
- residual activity [33]: 75%
- residual activity [34]: 100%
- residual activity [35]: 93%
- residual activity [36]: 95%
- residual activity [37]: 100%
- residual activity [38]: 96%
- residual activity [39]: 100%
- residual activity [40]: 75%
- residual activity [41]: 98%
- residual activity [42]: 100%
- inhibition [43]: -9.2%
- inhibition [44]: -4.46%
- inhibition [45]: 16.6%

Compound: O=C(N[C@H]1CCCCC/C=C\C2C[C@@]2(C(=O)O)NC(=O)[C@@H]2C[C@@H](Oc3ccncc3)CN2C1=O)OC1CCCC1 (some centres not stated) [BI 1675]
- IC50 (NS3 protease): 4870 nM (not active)
- residual activity [1]: 71%
- residual activity [2]: 90%
- residual activity [3]: 92%
- residual activity [4]: 95%
- residual activity [5]: 100%
- residual activity [6]: 96%
- residual activity [7]: 91%
- residual activity [8]: 100%
- residual activity [9]: 89%
- residual activity [10]: 80%
- residual activity [11]: 83%
- residual activity [12]: 100%
- residual activity [13]: 46%
- residual activity [14]: 66%
- residual activity [15]: 99%
- residual activity [16]: 100%
- residual activity [17]: 90%
- residual activity [18]: 100%
- residual activity [19]: 90%
- residual activity [20]: 100%
- residual activity [21]: 100%
- residual activity [22]: 93%
- residual activity [23]: 100%
- residual activity [24]: 72%
- residual activity [25]: 91%
- residual activity [26]: 86%
- residual activity [27]: 80%
- residual activity [28]: 94%
- residual activity [29]: 91%
- residual activity [30]: 97%
- residual activity [31]: 89%
- residual activity [32]: 91%
- residual activity [33]: 98%
- residual activity [34]: 82%
- residual activity [35]: 92%
- residual activity [36]: 86%
- residual activity [37]: 100%
- residual activity [38]: 100%
- residual activity [39]: 78%
- residual activity [40]: 100%
- residual activity [41]: 100%
- residual activity [42]: 100%
- inhibition [43]: 12.7%
- inhibition [44]: -6.94%
- inhibition [45]: -8.64%
